Patent US20260305610A1, “TRIAZOLE COMPOUND, AND PREPARATION METHOD THEREFOR, HERBICIDAL COMPOSITION AND USE THEREOF” (QINGDAO KINGAGROOT CHEMICAL COMPOUND CO., LTD., priority 2023, published 2026)

Tests used:
[1] = system: monocotyledonous and dicotyledonous weeds; assay: Pre-emergence test experiment (weeds); assay type: in vivo; set-up: key: 9: completely dead; 8: growth control rate is greater than or equal to 90% and less than 100%; 7: growth control rate is greater than or equal to 80% and less than 90%; 6: growth control rate is greater than or equal to 70% and less than 80%; growth control rate is greater than or equal to 50% and less than 70%; 4: growth control rate is greater than or equal to 30% and less than 50%; growth control rate is greater than or equal to 20% and less than 30%; growth control rate is greater than or equal to 10% and less than 20%; growth control rate is less than 10%; 0: no effect; conditions: 30 g a.i./ha
[2] = system: major crops; assay: Pre-emergence test experiment (crops); assay type: in vivo; set-up: key: 9: completely dead; 8: growth control rate is greater than or equal to 90% and less than 100%; 7: growth control rate is greater than or equal to 80% and less than 90%; 6: growth control rate is greater than or equal to 70% and less than 80%; growth control rate is greater than or equal to 50% and less than 70%; 4: growth control rate is greater than or equal to 30% and less than 50%; growth control rate is greater than or equal to 20% and less than 30%; growth control rate is greater than or equal to 10% and less than 20%; growth control rate is less than 10%; 0: no effect; conditions: 30 g a.i./ha

SMILES | Pre-emergence activity level (growth control rate) on Amaranthus retroflexus [1] | Pre-emergence activity level (growth control rate) on Descurainia sophia [1] | Pre-emergence activity level (growth control rate) on Digitaria sanguinalis [1] | Pre-emergence activity level (growth control rate) on Setaria viridis [1] | Pre-emergence activity level (growth control rate) on Solanum nigrum [1] | Pre-emergence activity level (growth control rate) on Veronica [1] | Pre-emergence plant damage level (growth control rate) on Corn [2] | Pre-emergence plant damage level (growth control rate) on Cotton [2] | Pre-emergence plant damage level (growth control rate) on Soybean [2]
N#Cc1cc(Oc2cccc(C(F)(F)F)c2)nc(-n2cnc(C(F)(F)F)n2)c1 [Compound 2] | 9 | 9 | 8 (growth control rate is greater than or equal to 90% and less than 100%) | 8 (growth control rate is greater than or equal to 90% and less than 100%) | 9 | 9 | 0 | 0 | 0
COc1cc(Oc2cccc(C(F)(F)F)c2)nc(-n2cnc(C(F)(F)F)n2)c1 [Compound 3] | 9 | 9 | 8 (growth control rate is greater than or equal to 90% and less than 100%) | 9 | 9 | 9 | 0 | 0 | 0
Cc1cc(Oc2cccc(C(F)(F)F)c2)nc(-n2cnc(C(F)(F)F)n2)c1 [Compound 5] | 9 | 9 | 9 | 9 | 9 | 9 | 0 | 0 | 0
Cc1cc(Oc2cncc(C(F)(F)F)c2)nc(-n2cnc(C(F)(F)F)n2)c1 [Compound 6] | 9 | 9 | 9 | 9 | 9 | 9 | 0 | 0 | 0
FC(F)(F)c1cccc(Oc2nc(-n3cnc(C(F)(F)F)n3)ccc2Cl)c1 [Compound 7] | 9 | 9 | 8 (growth control rate is greater than or equal to 90% and less than 100%) | 9 |  | 9 | 0 | 0 | 0
Cc1ccc(-n2cnc(C(F)F)n2)nc1Oc1cccc(F)c1 [Compound 81] | 9 | 9 |  |  |  | 9 |  |  | 
CSc1cc(Oc2cccc(C(F)(F)F)c2)nc(-n2cnc(C(F)(F)F)n2)c1 [Compound 86] |  |  |  |  |  | 9 |  |  | 
CSc1cc(Oc2cccc(OC(F)(F)F)c2)nc(-n2cnc(C(F)(F)F)n2)c1 [Compound 87] |  |  |  |  |  | 8 (growth control rate is greater than or equal to 90% and less than 100%) |  |  | 
Cc1ccc(-n2cnc(C(F)(F)F)n2)nc1Oc1cccc(C#N)c1 [Compound 88] | 9 |  |  |  | 9 |  |  |  | 
CCc1ccc(-n2cnc(C(F)(F)F)n2)nc1Oc1cccc(C#N)c1 [Compound 89] | 9 |  | 9 | 9 |  |  |  |  | 
CCc1ccc(-n2cnc(C(F)(F)F)n2)nc1Oc1cncc(C#N)c1 [Compound 94] |  |  |  | 8 (growth control rate is greater than or equal to 90% and less than 100%) |  |  |  |  | 
CCc1ccc(-n2cnc(C(F)(F)F)n2)nc1Oc1ccc(F)c(C#N)c1 [Compound 96] | 8 (growth control rate is greater than or equal to 90% and less than 100%) | 9 |  |  |  |  |  |  | 
Cc1ccc(-n2cnc(C3CC3)n2)nc1Oc1cccc(C(F)(F)F)c1 [Compound 100] |  |  |  | 9 | 8 (growth control rate is greater than or equal to 90% and less than 100%) |  |  |  | 
CSc1cc(Oc2cncc(C(F)(F)F)c2)nc(-n2cnc(C(F)(F)F)n2)c1 [Compound 111] |  | 9 |  | 8 (growth control rate is greater than or equal to 90% and less than 100%) |  |  |  |  | 
Cc1cc(Oc2ccc(F)c(C(F)(F)F)c2)nc(-n2cnc(C(F)(F)F)n2)c1 [Compound 120] |  | 9 |  |  |  |  |  |  | 
Cc1cc(Oc2cccc(Cl)c2)nc(-n2cnc(C(F)(F)F)n2)c1 [Compound 121] |  | 9 |  |  |  |  |  |  | 
Cc1cc(Oc2cccc(OC(F)(F)F)c2)nc(-n2cnc(C(F)(F)F)n2)c1 [Compound 122] | 8 (growth control rate is greater than or equal to 90% and less than 100%) | 9 | 8 (growth control rate is greater than or equal to 90% and less than 100%) | 9 |  | 8 (growth control rate is greater than or equal to 90% and less than 100%) |  |  | 
Cc1cc(Oc2ccc(F)c(OC(F)(F)F)c2)nc(-n2cnc(C(F)(F)F)n2)c1 [Compound 123] |  | 9 |  |  |  |  |  |  | 
Cc1ccc(-n2cnc(C(F)(F)C(F)(F)F)n2)nc1Oc1cccc(C(F)F)c1 [Compound 125] |  | 9 |  |  | 9 |  |  |  | 
Cc1ccc(-n2cnc(C(F)(F)C(F)(F)F)n2)nc1Oc1ccc(F)c(C(F)(F)F)c1 [Compound 126] |  | 9 |  |  | 9 |  |  |  | 
Cc1ccc(-n2cnc(C(F)(F)C(F)(F)F)n2)nc1Oc1cccc(OC(F)F)c1 [Compound 127] |  | 9 |  | 8 (growth control rate is greater than or equal to 90% and less than 100%) | 9 |  |  |  | 
CCc1ccc(-n2cnc(C(F)F)n2)nc1Oc1cccc(F)c1 [Compound 128] |  |  |  |  | 9 |  |  |  | 
CCc1ccc(-n2cnc(C(F)(F)F)n2)nc1Oc1cccc(F)c1 [Compound 129] |  |  | 8 (growth control rate is greater than or equal to 90% and less than 100%) | 9 |  |  |  |  | 
CCc1ccc(-n2cnc(C(F)(F)F)n2)nc1Oc1cccc(Cl)c1 [Compound 130] |  | 9 |  |  | 9 |  |  |  | 
CCc1ccc(-n2cnc(C(F)F)n2)nc1Oc1cccc(Cl)c1 [Compound 131] |  |  |  |  | 9 |  |  |  | 
CCc1ccc(-n2cnc(C(F)(F)F)n2)nc1Oc1cccc(C)c1 [Compound 134] | 8 (growth control rate is greater than or equal to 90% and less than 100%) | 9 | 8 (growth control rate is greater than or equal to 90% and less than 100%) |  |  |  |  |  | 
COCc1ccc(-n2cnc(C(F)(F)F)n2)nc1Oc1cccc(F)c1 [Compound 138] |  | 9 |  |  | 9 |  |  |  | 
